Like-named read-outs stand apart in the source and are kept apart here. Blank lines part the entries; values can stand above or below the molecule they belong to.
How the values were obtained:
ShHTL7 [1] = target: T1, ShHTL7 (Striga hermonthica, UniProt A0A0M3PNA2); test: YLG hydrolysis competition assay with ShHTL7; assay type: biochemical
T1 sequence (A0A0M3PNA2 1-271): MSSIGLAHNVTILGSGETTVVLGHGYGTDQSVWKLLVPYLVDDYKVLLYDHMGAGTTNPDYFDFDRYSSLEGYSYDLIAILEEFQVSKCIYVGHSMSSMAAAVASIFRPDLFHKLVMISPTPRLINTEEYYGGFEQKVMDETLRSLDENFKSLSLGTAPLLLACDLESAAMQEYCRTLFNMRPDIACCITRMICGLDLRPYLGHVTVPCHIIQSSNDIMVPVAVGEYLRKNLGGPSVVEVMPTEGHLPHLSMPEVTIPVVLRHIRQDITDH
Method: About 0.33 µM of ShHTL7 protein was used to conduct in vitro hydrolysis of YLG (1 µM) as a substrate in a total volume of 100 µL of phosphate-buffered saline (1× PBS) containing 0.1% DMSO in 96-well black plate (Greiner Kremsmünster, Austria; [Tsuchiya et al., 2015]). The hydrolysis of YLG over time and changes in the fluorescence intensity was measured by SpectraMax i3 (Molecular Devices, San Jose, CA, USA) using an excitation wavelength of 480 nm and detection wavelength of 520 nm and recorded at 10 min intervals for 2 h. YLG in 1× PBS without protein was used as a control. […] Measurement of the fluorescence was conducted in SpectraMax i3 (Molecular Devices) using the above-mentioned method. The relative fluorescence unit was calculated by subtracting the auto-fluorescence of YLG in the buffer from the fluorescence values of YLG in the presence of a protein. The inhibitory curve and IC50 were determined using https://www.aatbio.com/tools/ic50-calculator website.

OsD14 = target: T2, OsD14 (Oryza sativa subsp. japonica, UniProt Q10QA5); test: YLG hydrolysis competition assay with OsD14; assay type: biochemical, rice (Oryza sativa)
T2 construct: made in house; host or cells: Escherichia coli BL21 (DE3)
T2 sequence (Q10QA5 1-318): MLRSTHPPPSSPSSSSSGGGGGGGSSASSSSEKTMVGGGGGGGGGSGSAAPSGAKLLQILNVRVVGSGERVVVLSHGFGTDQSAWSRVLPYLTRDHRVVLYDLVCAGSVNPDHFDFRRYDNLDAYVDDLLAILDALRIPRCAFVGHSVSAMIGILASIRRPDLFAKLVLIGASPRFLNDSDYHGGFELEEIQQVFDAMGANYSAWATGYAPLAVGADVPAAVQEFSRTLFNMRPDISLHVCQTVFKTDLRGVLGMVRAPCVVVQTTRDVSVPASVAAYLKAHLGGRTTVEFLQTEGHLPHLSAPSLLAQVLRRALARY

ShHTL7 [2] = target: T1, ShHTL7; test: DSF thermal stability of ShHTL7; assay type: binding; conditions: for Effect on SYPRO orange fluorescence peak of ShHTL7: 0 to 100 µM, result in words
Method: About 10 µM of ShHTL7 purified protein was incubated with various concentrations of KK023-N1, Triton X-100, or KK094 (ranging from 0 to 100 µM) for 30 min. Then SYPRO Orange (reporter dye) was added to 1× final concentration. The reactions were carried out in 25 µL 1× PBs buffer. The assay was performed on CFX96 Real-Time System (BIO-RAD, Hercules, CA, USA) thermal cycler on 96-well quantitative polymerase chain reaction (qPCR) white plate, and the plate was sealed with adhesive qPCR plate seal to prevent samples evaporation ([Bai et al., 2019]). First, samples were heated to 25°C for 1 min followed by linear increase in the temperature ramp from 25°C to 99°C at a rate of 0.5°C/15 s. The change in the protein folding was monitored by the changes in the fluorescence of the reporter dye, and the data were analyzed by the machine software that plots the inflection point of fluorescence against temperature. Data were exported into Excel, and replicates were averaged to generate the graph.

Striga hermonthica seeds = test: Striga seed germination bioassay (seeds from Sudan); assay type: in vivo; conditions: for Reduction in Striga seed germination compared to the GR24 treatment: 20-40 µM inhibitor
Method: Striga seeds were surface sterilized by 20% Sodium hypochlorite (NaClO) for 10 min followed by successive 6 times washing with sterilized MilliQ water. Seeds were kept to dry under the laminar flow cabinet, and ∼50–100 sterilized Striga seeds were spread uniformly on a glass fiber filter paper disc (9 mm). For preconditioning, around 12 discs were put in a petri plate on a filter paper moistened with 3 mL sterilized MilliQ water. Plates were then sealed with parafilm and kept in an incubator for 10 d at 30°C (in dark). After preconditioning, plates were removed from the incubator and dried, and discs were pre-treated with different concentrations (0, 5, 10, 20, 40, 80, 160, 320, and 640 μM) of KK023-N1, KK023-N2, Triton X-100, or KK094 for 24 h. Next day, a combination of the inhibitors (same concentrations) along with GR24 (0.5 nM or 1 nM) was applied, and discs were incubated at 30°C for 24 h. For inhibitory effect of KK023-N1 and -N2 on Striga seeds obtained from Kenya, seeds were treated with (0, 3, 6, 12, 25, 50,100, 200, 400, and 800 μM). After image scanning, germinated and nongerminated seeds were counted and germination rate (%) was calculated by using SeedQuant software ([Braguy et al., 2021)].

Rice d17 seedlings = test: Rice micro tillering assay, SL-deficient mutant d17 with GR24; assay type: in vivo, rice (Oryza sativa); conditions: compound with 1.0 µM GR24; result in words
Method: (§1) Rice seeds of WT (cv Nipponbare) or SL-deficient mutant (d17), were surface sterilized with 2.5% NaClO and 0.05% of Tween-20 for 10 min, and rinsed 6 times with sterilized MilliQ water. About 30 seeds were placed on sterilized Magenta GA-7 plant culture box containing 0.5% MS medium with 0.4% agar and incubated at 30°C in dark. After 2 d, boxes were moved to a growth chamber and allowed to grow for another 5 d under fluorescent white light (130–180 μM m^−2 s^−1). Equally grown seedlings were transplanted in 50-mL black tubes filled with Hoagland nutrient solution (1 seedling/tube). Seedlings were treated with 10, 50, and 100 µM of each compound (KK023-N1, Triton X-100, and KK094). The compounds were applied twice a week for 2 weeks to test their effects on the growth of WT plants. SL-deficient seedlings (d17) were treated as WT but with the addition of 1 µM GR24. Number of tillers per plant, plant height, and dry biomass were measured at final harvest.

Striga hermonthica = test: Striga emergence study in infested rice pots under greenhouse conditions; assay type: in vivo, Striga hermonthica on rice cv IAC165; conditions: for Change in Striga emergence compared to mock: Figure 10B; for Rice plant height, change: Striga-infested pots, Figure 10C
Method: Approximately 6,000 Striga seeds (20 mg) were weighed, mixed with sand/soil mixture (1:2 ratio), and put into a 3-L perforated plastic pot containing 0.5-L clean sand/soil mixture in the bottom. The pots were kept under greenhouse-controlled conditions at 30°C and kept moist with water for Striga preconditioning for 10 d. Formulated KK023-N1 and Triton X-100 were applied (at 100 mL per pot) at 10 and 100 µM concentration. Then three rice seedlings (cv IAC165, 10 d old) were planted in each pot after 24 h of inhibitor application. All the treatments were applied continuously twice per week for 4 weeks. Water with same amount of solvent (Cyclohexanone+Atlas-G) was used as a control. Pots were irrigated with 200 mL of Hoagland’s nutrient solution with low phosphate (4 µM) when needed. The rice plants were allowed to grow under greenhouse conditions for 10 weeks and the emerged Striga plants were counted from each pot. The height of rice plants was also measured to see impact of Striga infestation on host growth.

ShHTL7 [3] = target: T1, ShHTL7; design: method as in Holbrook-Smith et al., 2016; Yoneyama, 2016; conditions: previously reported, ref Holbrook-Smith et al., 2016, Yoneyama, read-out: IC50, competitive inhibition of ShHTL7-mediated YLG hydrolysis; cited from earlier work
ShHTL5 = ShHTL5 (Striga hermonthica, UniProt A0A0M5I297); test: YLG hydrolysis competition assay with ShHTL5; assay type: biochemical; conditions: result in words
[4] = test system: Rice seeds (cv Nipponbare); test: Rice germination and seedling growth in response to inhibitors; assay type: in vivo, rice (Oryza sativa); conditions: result in words
Method: Rice seeds (cv Nipponbare) were surface sterilized in 2.5% NaClO and 0.05% of Tween-20 for 10 min, and rinsed 6 times with sterilized MilliQ water. Seeds were imbibed in sterilized water at 30°C for 24 h in the dark. Next day, ∼3 mL of each inhibitor at different concentrations (3, 6, 12, 25, 50, and 100 μM) was added along with 0.5 Murashige and Skoog (MS) medium into 24-well plate, and one imbibed rice seed was placed in each well. The experiment was performed in six replications (one plant/well, n = 6) for each concentration. Nontreated rice seeds in 0.5-MS solution were included as a control. Seeds were allowed to germinate at 30°C in the dark for 48 h for monitoring seeds germination, and seeds were moved to a growth chamber with white fluorescent light (130–180 μM m^−2 s^−1) and12 h:12 h (Light/Dark (L/D)) period at 28°C. After 1 week, length of rice seedlings was measured and recorded, and pictures of seedlings were taken.

[5] = test system: Rice WT (cv Nipponbare) seedlings; test: Rice micro tillering assay, WT, hydroponics; assay type: in vivo, rice (Oryza sativa); conditions: 10, 50 and 100 µM, 2 weeks, result in words
Method: as §1

[6] = 0.33 µM ShHTL7, 1 µM YLG, read-out: IC50, inhibition of ShHTL7-mediated YLG hydrolysis

Chain of ShHTL5 (A0A0M5I297 entry or part of it): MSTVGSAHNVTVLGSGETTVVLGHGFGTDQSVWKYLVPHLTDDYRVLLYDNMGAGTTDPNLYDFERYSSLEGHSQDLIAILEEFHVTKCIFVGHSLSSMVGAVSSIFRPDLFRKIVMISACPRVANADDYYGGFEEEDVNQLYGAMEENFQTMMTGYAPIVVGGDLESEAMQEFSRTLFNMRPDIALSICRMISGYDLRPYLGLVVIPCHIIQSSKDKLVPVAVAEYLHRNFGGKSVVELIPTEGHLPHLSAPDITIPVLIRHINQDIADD

Molecule: CC1=C[C@H](O/C=C2/C(=O)O[C@@H]3c4ccccc4C[C@H]23)OC1=O [GR24]
IC50 (ShHTL7 [1]; [6]): 270 nM
IC50 (OsD14; 0.33 µM OsD14, 1 µM YLG, read-out: IC50, inhibition of OsD14-mediated YLG hydrolysis): 2.59 µM
Decrease of ShHTL7 melting temperature (ShHTL7 [2]): 7 °C
Melting temperature of ShHTL7 (ShHTL7 [2]; high concentrations of compound, 50°C without): 43 °C

IC50 (ShHTL7 [1]; [6]): 470 nM
Effect on SYPRO orange fluorescence peak of ShHTL7 (ShHTL7 [2]): reduction in the peak fluorescence
Molecule: Triton X-100 [reference compound]
Reduction in Striga seed germination compared to the GR24 treatment (Striga hermonthica seeds; GR24 0.5 or 1.0 nM): 31%
Effect on GR24 action on tillering of d17 rice (Rice d17 seedlings): did not block the GR24 effect on rice tillers
Change in Striga emergence compared to mock (Striga hermonthica; 10 µM): -13%
Rice plant height, change (Striga hermonthica; 10 µM): -23%
Change in Striga emergence compared to mock (Striga hermonthica; 100 µM): -25%
Rice plant height, change (Striga hermonthica; 100 µM): -4%

Molecule: CCOC(=O)C1(Cc2cccc(C(F)(F)F)c2)CCN(Cc2ccc(C#CCCO)cc2)CC1 [Soporidine]
IC50 (ShHTL7 [3]): 12.5 µM

Molecule: COc1ccc(CCCc2cccc3c2CCN3C(=O)n2nccn2)cc1 [KK023-N2]
IC50 (ShHTL7 [1]): 2150 nM
IC50 (OsD14; Figure 3D-F, mean ± SD, n = 3, no unit printed with values (x-axis µM), read-out: IC50, OsD14-mediated YLG hydrolysis (Figure 3)): > 50 µM
Effect on YLG hydrolysis by ShHTL5 (ShHTL5): did not influence the YLG hydrolysis
Reduction in Striga seed germination compared to the GR24 treatment (Striga hermonthica seeds; GR24 0.5 or 1.0 nM): around 42%
Effect on rice seedling plant height ([4]; all treatments (3-100 µM), 1 week): no effect on plant height was observed
Effect on rice seed germination ([4]; up to 100 µM): did not detect any effect on seed germination
Phenotype of treated rice seedlings versus control ([4]; up to 100 µM): did not show any significant phenotypic difference

Molecule: O=C(N1CCc2ccccc21)n1ccnn1 [KK094]
IC50 (ShHTL7 [1]): > 25000 nM
Effect on SYPRO orange fluorescence peak of ShHTL7 (ShHTL7 [2]): did not change the fluorescence peak
Reduction in Striga seed germination (Striga hermonthica seeds; 20 µM inhibitor, GR24 0.5 or 1.0 nM): 50%
Inhibition of Striga seed germination (Striga hermonthica seeds; 80 µM, result in words): complete inhibition
inhibition at 100 µM (Striga hermonthica seeds; Striga hermonthica, 100 µM): 100%
Effect on dry biomass of WT rice [5]: reduction in plant height and dry biomass
Effect on plant height of WT rice [5]: reduction in plant height
Effect on tillering of WT rice [5]: significant increase in rice tillering
Effect on GR24 action on tillering of d17 rice (Rice d17 seedlings): blocked D14, resulting in increased tillering phenotype
